Source: BindingDB's records for doi:10.1007/s00213-002-1073-7 (WestfÄLische Wilhelms-Universit&Auml, 2002)
“And” between values parts separate entries of the source, which are not always exact repeats. Equal entries are not always repeated.

How the values were obtained:
D(1A) dopamine receptor = D(1A) dopamine receptor (Homo sapiens, UniProt P21728)
[1] = target: T1, 5-hydroxytryptamine receptor 3A (Homo sapiens, UniProt P46098)
T1 sequence (P46098 whole entry): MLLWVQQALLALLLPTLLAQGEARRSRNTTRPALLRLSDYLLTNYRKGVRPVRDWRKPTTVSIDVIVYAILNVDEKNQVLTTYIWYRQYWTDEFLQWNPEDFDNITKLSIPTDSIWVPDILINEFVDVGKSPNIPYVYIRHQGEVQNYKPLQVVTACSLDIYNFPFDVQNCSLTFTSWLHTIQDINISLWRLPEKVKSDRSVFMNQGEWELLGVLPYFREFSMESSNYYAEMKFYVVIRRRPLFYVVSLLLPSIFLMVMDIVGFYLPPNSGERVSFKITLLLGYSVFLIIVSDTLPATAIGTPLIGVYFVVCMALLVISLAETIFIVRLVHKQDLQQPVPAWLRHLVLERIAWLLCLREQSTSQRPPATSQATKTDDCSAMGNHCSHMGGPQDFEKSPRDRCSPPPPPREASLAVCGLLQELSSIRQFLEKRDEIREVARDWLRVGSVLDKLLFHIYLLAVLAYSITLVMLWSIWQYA

Histamine H1 receptor = Histamine H1 receptor (Rattus norvegicus, UniProt P31390)
Chain of Histamine H1 receptor (P31390 whole entry): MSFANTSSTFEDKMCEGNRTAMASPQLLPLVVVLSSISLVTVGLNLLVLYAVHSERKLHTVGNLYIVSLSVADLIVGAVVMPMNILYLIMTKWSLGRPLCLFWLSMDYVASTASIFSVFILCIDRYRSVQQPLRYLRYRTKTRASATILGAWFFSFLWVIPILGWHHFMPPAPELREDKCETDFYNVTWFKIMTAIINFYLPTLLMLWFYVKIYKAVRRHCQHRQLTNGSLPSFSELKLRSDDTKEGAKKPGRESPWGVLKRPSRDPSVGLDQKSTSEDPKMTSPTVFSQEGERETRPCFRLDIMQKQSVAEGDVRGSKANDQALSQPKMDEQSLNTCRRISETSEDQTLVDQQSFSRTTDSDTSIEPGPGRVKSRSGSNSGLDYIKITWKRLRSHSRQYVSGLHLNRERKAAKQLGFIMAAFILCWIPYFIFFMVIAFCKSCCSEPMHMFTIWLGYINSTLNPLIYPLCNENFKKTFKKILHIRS

[2] = target: T2, Muscarinic acetylcholine receptor M4 (Homo sapiens, UniProt P08173)
T2 sequence (P08173 whole entry): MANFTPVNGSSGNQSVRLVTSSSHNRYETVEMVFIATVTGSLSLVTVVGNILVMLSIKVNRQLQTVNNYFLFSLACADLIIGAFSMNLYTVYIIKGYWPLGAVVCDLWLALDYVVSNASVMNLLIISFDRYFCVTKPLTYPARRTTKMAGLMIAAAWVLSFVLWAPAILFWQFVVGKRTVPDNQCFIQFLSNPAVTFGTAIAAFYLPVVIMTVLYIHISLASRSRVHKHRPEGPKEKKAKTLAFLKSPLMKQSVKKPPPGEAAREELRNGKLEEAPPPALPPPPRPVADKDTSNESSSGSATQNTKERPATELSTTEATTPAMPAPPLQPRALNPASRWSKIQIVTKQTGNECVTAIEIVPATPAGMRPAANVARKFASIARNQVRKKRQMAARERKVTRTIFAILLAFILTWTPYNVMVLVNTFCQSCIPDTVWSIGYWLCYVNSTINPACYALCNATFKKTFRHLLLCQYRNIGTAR

[3] = target: 5-hydroxytryptamine receptor 6 (Homo sapiens, UniProt P50406)
Chain of 5-hydroxytryptamine receptor 6 (P50406 whole entry): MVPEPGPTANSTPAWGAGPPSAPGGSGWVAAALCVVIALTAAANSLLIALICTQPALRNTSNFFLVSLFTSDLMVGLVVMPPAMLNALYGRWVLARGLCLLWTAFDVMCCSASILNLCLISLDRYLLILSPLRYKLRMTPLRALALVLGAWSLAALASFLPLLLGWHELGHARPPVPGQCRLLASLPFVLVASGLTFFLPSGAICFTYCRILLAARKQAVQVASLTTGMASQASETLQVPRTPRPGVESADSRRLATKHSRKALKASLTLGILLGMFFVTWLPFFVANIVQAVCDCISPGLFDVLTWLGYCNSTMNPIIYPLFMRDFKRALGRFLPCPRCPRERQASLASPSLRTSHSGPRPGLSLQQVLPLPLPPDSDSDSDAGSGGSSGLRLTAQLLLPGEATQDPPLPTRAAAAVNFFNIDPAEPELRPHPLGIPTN

[4] = target: T3, Alpha-2C adrenergic receptor (Homo sapiens, UniProt P18825)
T3 sequence (P18825 whole entry): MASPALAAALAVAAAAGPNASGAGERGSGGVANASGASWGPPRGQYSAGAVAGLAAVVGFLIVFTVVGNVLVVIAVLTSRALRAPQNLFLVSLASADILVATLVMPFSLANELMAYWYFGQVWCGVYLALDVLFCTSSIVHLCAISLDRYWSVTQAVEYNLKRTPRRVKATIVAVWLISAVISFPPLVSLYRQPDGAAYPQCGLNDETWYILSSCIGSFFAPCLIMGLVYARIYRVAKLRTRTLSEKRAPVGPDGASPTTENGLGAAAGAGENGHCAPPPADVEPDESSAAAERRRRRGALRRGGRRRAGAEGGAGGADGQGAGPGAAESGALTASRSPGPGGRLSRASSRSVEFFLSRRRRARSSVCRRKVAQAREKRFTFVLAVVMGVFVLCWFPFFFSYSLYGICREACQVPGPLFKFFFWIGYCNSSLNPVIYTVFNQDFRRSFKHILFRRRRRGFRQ

[5] = target: T4, 5-hydroxytryptamine receptor 1A (Homo sapiens, UniProt P08908)
T4 sequence (P08908 whole entry): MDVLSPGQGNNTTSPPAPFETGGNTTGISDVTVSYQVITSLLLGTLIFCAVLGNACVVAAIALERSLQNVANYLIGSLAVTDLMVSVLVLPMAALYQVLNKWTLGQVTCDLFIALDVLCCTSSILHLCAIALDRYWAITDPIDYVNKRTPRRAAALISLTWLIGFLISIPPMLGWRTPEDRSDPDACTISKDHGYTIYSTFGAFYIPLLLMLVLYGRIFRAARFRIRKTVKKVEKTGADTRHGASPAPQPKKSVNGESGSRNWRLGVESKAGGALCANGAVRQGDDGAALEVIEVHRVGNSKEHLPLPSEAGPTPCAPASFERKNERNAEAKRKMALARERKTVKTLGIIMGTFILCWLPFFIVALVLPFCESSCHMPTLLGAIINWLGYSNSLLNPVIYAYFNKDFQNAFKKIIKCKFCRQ

[6] = target: T5, Muscarinic acetylcholine receptor M5 (Homo sapiens, UniProt P08912)
T5 sequence (P08912 whole entry): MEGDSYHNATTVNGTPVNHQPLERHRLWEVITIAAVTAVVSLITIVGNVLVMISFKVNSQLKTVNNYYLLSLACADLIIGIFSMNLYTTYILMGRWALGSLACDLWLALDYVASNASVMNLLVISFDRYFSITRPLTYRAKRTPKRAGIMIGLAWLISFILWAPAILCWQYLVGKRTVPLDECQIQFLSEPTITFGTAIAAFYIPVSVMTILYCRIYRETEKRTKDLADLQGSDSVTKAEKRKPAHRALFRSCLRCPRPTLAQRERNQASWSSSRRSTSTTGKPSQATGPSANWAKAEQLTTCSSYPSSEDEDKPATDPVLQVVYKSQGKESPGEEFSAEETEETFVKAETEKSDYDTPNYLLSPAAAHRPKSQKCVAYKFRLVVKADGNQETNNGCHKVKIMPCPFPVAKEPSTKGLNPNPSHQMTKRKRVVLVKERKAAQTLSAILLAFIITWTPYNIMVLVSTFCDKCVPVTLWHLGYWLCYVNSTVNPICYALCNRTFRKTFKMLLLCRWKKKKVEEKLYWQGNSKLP

Chain of D(1A) dopamine receptor (P21728 whole entry): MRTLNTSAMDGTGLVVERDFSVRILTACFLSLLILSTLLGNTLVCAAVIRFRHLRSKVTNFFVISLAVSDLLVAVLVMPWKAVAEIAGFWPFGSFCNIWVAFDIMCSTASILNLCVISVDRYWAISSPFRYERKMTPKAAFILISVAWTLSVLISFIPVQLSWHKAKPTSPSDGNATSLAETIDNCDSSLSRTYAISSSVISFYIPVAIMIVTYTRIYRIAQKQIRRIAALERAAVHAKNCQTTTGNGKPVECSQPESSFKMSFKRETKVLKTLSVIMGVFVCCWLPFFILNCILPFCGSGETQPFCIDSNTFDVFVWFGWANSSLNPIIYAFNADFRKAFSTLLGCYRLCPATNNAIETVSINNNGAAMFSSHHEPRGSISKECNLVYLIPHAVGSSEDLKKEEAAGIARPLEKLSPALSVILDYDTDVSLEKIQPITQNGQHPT

| SMILES | Ki (D(1A) dopamine receptor) | Ki [1] | Ki (Histamine H1 receptor) | Ki [2] | Ki [3] | Ki [4] | Ki [5] | Ki [6] |
| --- | --- | --- | --- | --- | --- | --- | --- | --- |
| C[C@@H]1O[C@@H](Oc2c(-c3ccc(O)c(O)c3)oc3cc(O)cc(=O)c-3c2O)[C@H](O)[C@H](O)[C@H]1O | > 10 µM | > 10 µM | > 10 µM | > 10 µM | > 10 µM | > 10 µM | > 10 µM | > 10 µM |
| O=c1c(O)c(-c2ccc(O)c(O)c2)oc2cc(O)cc(O)c12 [2-(3,4-dihydroxyphenyl)-3,5,7-trihydroxy-chromone;hydrate] | > 10 µM | > 10 µM | > 10 µM | > 10 µM | > 10 µM | > 10 µM | > 10 µM | > 10 µM |
| O=c1cc(O)cc2oc(-c3ccc(O)c(O)c3)c(OC3OC(CO)C(O)C(O)C3O)c(O)c1-2 (stereo not drawn) [NSC_5318390] | > 10 µM | > 10 µM | > 10 µM | > 10 µM | > 10 µM | > 10 µM and 4.06 µM | > 10 µM | > 10 µM |
| CC(C)=CCC[C@]1(C)[C@@H](CC=C(C)C)C[C@]2(CC=C(C)C)C(=O)C(CC=C(C)C)C(=O)[C@]1(C(=O)C(C)C)C2=O (stereo partly drawn) | 0.596 µM | > 10 µM | > 10 µM | > 10 µM | > 10 µM | > 10 µM | > 10 µM | > 10 µM |
| O=c1cc(O)cc2oc(-c3ccc(O)c(-c4c(O)cc(O)c5c(=O)cc(-c6ccc(O)cc6)oc45)c3)cc(O)c1-2 | > 10 µM | > 10 µM | > 10 µM | > 10 µM | > 10 µM | > 10 µM | > 10 µM | > 10 µM |
| C[C@@H]1O[C@@H](OC[C@H]2O[C@@H](Oc3c(-c4ccc(O)c(O)c4)oc4cc(O)cc(O)c4c3=O)[C@H](O)[C@@H](O)[C@@H]2O)[C@H](O)[C@H](O)[C@H]1O [3-Rhamnoglucosylquercetin] | > 10 µM | > 10 µM | > 10 µM | > 10 µM | > 10 µM | 9.64 µM | > 10 µM | 0.0351 µM |
